# Reference: PMC5648786, “Characterization of a dual function macrocyclase enables design and use of efficient macrocyclization substrates” (Nature Communications, 2017)
# Substitutions are numbered along the chain they refer to. Several values for one entry are separate records, joined by “and”; a condition that tells them apart may be missing. Equal values may be shown once. Read-outs that look alike come from different tables or passages of the source. No end group written: not given here.
# T1: GmPOPB-S577A (inactive mutant) (Galerina marginata, UniProt H2E7Q8, S577A)
# T1 construct: His-tag (TEV-cleavable) (cleaved yes); made in house; host or cells: E. coli BL21(DE3)
# T1 sequence (H2E7Q8 1-730 S577A): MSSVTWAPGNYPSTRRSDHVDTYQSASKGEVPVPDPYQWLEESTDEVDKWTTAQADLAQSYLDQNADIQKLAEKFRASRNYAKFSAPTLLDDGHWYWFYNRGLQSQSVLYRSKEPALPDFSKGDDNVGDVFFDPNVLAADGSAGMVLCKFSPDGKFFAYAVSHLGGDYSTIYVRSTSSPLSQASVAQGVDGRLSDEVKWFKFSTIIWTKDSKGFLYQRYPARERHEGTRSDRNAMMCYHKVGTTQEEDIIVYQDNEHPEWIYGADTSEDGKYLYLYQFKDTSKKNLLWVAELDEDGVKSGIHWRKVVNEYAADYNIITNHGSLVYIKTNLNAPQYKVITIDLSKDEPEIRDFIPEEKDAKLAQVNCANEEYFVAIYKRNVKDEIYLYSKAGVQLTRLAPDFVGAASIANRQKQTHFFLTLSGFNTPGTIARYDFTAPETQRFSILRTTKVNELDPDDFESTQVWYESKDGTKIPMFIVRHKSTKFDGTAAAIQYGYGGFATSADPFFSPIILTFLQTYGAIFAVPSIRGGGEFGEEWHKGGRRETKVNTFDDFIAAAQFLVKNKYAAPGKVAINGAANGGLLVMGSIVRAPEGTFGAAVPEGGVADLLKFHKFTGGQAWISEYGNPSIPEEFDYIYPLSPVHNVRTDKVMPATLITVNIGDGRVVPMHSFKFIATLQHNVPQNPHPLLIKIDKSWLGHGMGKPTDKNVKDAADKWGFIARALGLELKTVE
# T2: GmPOPB-S577A (Galerina marginata, UniProt H2E7Q8, S577A)
# T2 sequence: T1 sequence (H2E7Q8 1-730 S577A)
# T3: GmPOPB-H698A (Galerina marginata, UniProt H2E7Q8 1-730, H698A)
# T3 sequence: T1 sequence (H2E7Q8 1-730 S577A) with A577S, H698A
# Columns and labels:
# [1] = biological target: T1, GmPOPB-S577A (inactive mutant); experiment: Isothermal titration calorimetry, peptide binding to inactive mutant GmPOPB_S577A; conditions: for -TΔS / ΔG / ΔH / Binding detected by ITC / Kd: ITC; for -TΔS / ΔG / ΔH / Kd: 20 °C; for -TΔS / ΔG / ΔH: average ± SEM; for Binding detected by ITC: peptide concentrations up to 1 mM; for Kd: peptide titrated into GmPOPB_S577A, 50 mM Tris pH 8.0, 50 mM NaCl, 10 mM DTT, single-site model, n fixed at 1.0, average ± SEM of at least 2 measurements
# [2] = biological target: T1, GmPOPB-S577A (inactive mutant); conditions: ITC, GmPOPB_S577A, cited from earlier work
# Excerpt: Peptide Sequence Kd (μM) ΔG ΔH -TΔS N (kcal mol-1) (kcal mol-1) (kcal mol-1) measurements 9mer IW GIGCNPW ND ND ND ND 10mer IW GIGCNPW T 83 ± 17 -5.5 ± 0.1 -3.1 ± 0.5 -2.4 ± 0.3 2 11mer IW GIGCNPW TA 39 ± 18 -5.9 ± 0.3 -1.5 ± 0.7 […] 2 12mer IW GIGCNPW TAE 21 ± 5 -6.3 ± 0.1 -1.0 ± 0.3 -5.3 ± 0.4 2 13mer IW GIGCNPW TAEH 2.4 ± 0.1 -7.3 ± 0.1 -0.6 ± 0.2 -6.9 ± 0.2 2 14mer IW GIGCNPW TAEHV 9.5 ± 1.1 -6.7 ± 0.1 -0.9 ± 0.2 -5.8 ± 0.2 2 9mer- […] 121 ± 19 -5.3 ± 0.1 -6.4 ± 1.6 2.6 ± 1.5 3 recognition sequence 12mer- ...
# [3] = Peptide solubility when preparing ITC ligand solutions; type: physicochemical; conditions: peptide ligand solution for ITC
# Method: Supplementary Table 3 Thermodynamic parameters obtained by ITC.
# Peptide Sequence Kd (μM) ΔG ΔH -TΔS N
# (kcal mol-1) (kcal mol-1) (kcal mol-1) measurements
# 9mer IW GIGCNPW ND ND ND ND
# ND – peptide solubility was lower than 300 μM and measurements could not be
# Errors reported are standard error of the mean using the replicates indicated in the
# table and the fitted values using Malvern data analysis software.
# [4] = tested on: CC[C@H](C)[C@H](NC(=O)CNC(=O)[C@H](Cc1c[nH]c2ccccc12)NC(=O)[C@@H](NC(=O)[C@@H]1CCCN1C(=O)[C@H](CC(C)C)NC(=O)[C@H](CCCNC(=N)N)NC(=O)[C@@H](NC(=O)[C@H](C)NC(=O)[C@H](CC(N)=O)NC(=O)[C@@H](NC(=O)[C@H](CC(=O)O)NC(=O)[C@H](Cc1ccccc1)NC(=O)[C@@H](N)CCSC)[C@@H](C)O)[C@@H](C)O)[C@@H](C)CC)C(=O)NCC(=O)N[C@@H](CS)C(=O)N[C@@H](CC(N)=O)C(=O)N1CCC[C@H]1C(=O)N[C@@H](Cc1c[nH]c2ccccc12)C(=O)N[C@H](C(=O)N[C@@H](C)C(=O)N[C@@H](CCC(=O)O)C(=O)N[C@@H](Cc1c[nH]cn1)C(=O)N[C@H](C(=O)N[C@@H](CC(=O)O)C(=O)N[C@@H](CCC(N)=O)C(=O)N[C@H](C(=O)N[C@@H](CC(C)C)C(=O)N[C@@H](C)C(=O)N[C@@H](CO)C(=O)NCC(=O)N[C@@H](CC(N)=O)C(=O)N[C@@H](CC(=O)O)C(=O)N[C@H](C(=O)N[C@@H](CS)C(=O)O)[C@@H](C)CC)[C@@H](C)O)C(C)C)[C@@H](C)O; experiment: purified protein, by the assay type; conditions: pH 8.0
# Method: (§1) Comparison between distinct substrates was performed in 50 mM Tris pH 8.0, 50 mM NaCl, 10 mM DTT with varying concentrations of substrates at room temperature. All reactions were performed in duplicates. Reactions were started by adding GmPOPB (50 nM for GmAMA1_C6S, 1 μM for the 13mer and 14mer, and 20 nM for other substrates) to the assay mixture containing buffer and peptide. Reactions were quenched at several time points by adding 50 μL reaction mixture to 20 μL 6% TFA. Reactants were separated from products for quantification by injecting 50 μL of each quenched time point mix onto a ZORBAX SB-C18, 5 µm, 9.4 × 50 mm (Agilent) column connected to an Agilent LC-MS (G6130B Single Quad, Agilent Technologies). Reactants were separated from products using a gradient from H2O containing 0.1% TFA or 0.1% formic acid and 5% acetonitrile to 50% acetonitrile, at 1.5 ml/min for 8 min. […] The sum of product+substrate was assumed equal to the total initial amount of substrate, product converted from % to concentration. This value was divided by concentration of enzyme present to yield v/E t (min^−1). […] For progress curves with the 35mer substrate, measurements were triplicate and quantification relied on ion counts from mass spectrometry. […] Authentic cyclic peptide was quantified by UV absorbance. […] Kinetic data were fitted to a Michaelis–Menten equation using GraphPad Prism, and values reported are average and standard error of the mean.
# [5] = tested on: CC[C@H](C)[C@H](N)C(=O)N[C@@H](Cc1c[nH]c2ccccc12)C(=O)NCC(=O)N[C@H](C(=O)NCC(=O)N[C@@H](CS)C(=O)N[C@@H](CC(N)=O)C(=O)N1CCC[C@H]1C(=O)N[C@@H](Cc1c[nH]c2ccccc12)C(=O)N[C@H](C(=O)N[C@@H](C)C(=O)N[C@@H](CCC(=O)O)C(=O)N[C@@H](Cc1c[nH]cn1)C(=O)O)[C@@H](C)O)[C@@H](C)CC; experiment: purified protein, by the assay type; conditions: pH 8.0
# Method: as §1
# [6] = tested on: CC[C@H](C)[C@H](N)C(=O)N[C@@H](Cc1c[nH]c2ccccc12)C(=O)NCC(=O)N[C@H](C(=O)NCC(=O)N[C@@H](CS)C(=O)N[C@@H](CC(N)=O)C(=O)N1CCC[C@H]1C(=O)N[C@@H](Cc1c[nH]c2ccccc12)C(=O)N[C@H](C(=O)N[C@@H](C)C(=O)N[C@@H](CCC(=O)O)C(=O)N[C@@H](Cc1c[nH]cn1)C(=O)N[C@H](C(=O)O)C(C)C)[C@@H](C)O)[C@@H](C)CC; experiment: purified protein, by the assay type; conditions: pH 8.0
# Method: as §1
# [7] = biological target: T2, GmPOPB-S577A; experiment: ITC; conditions: both partners purified
# [8] = biological target: T3, GmPOPB-H698A; experiment: crystal structure; co-crystallization of 100 mg/ml protein with two-fold molar excess of peptide, sitting drop, 20 °C, 12.5 mM hexammine cobalt chloride as additive; conditions: both partners purified
# [9] = average ± SEM, previously published ref 21
molecule,measurement,setting,value
TLASGNDIC [9mer-recognition sequence],-TΔS,[1]; GmPOPB_S577A,2.6 ± 1.5 kcal/mol
same,ΔG,[1]; GmPOPB_S577A,-5.3 ± 0.1 kcal/mol
same,ΔH,[1]; GmPOPB_S577A,-6.4 ± 1.6 kcal/mol
WTAEHVDQTLASGNDIC [17mer-recognition sequence],Kd,"[2]; 20 °C, 50 mM Tris pH 8.0, 50 mM NaCl, 10 mM DTT, average ± SEM, previously published ref 21",0.43 ± 0.01 µM
same,-TΔS,[2]; [9],1.7 ± 0.4 kcal/mol
same,ΔG,[2]; [9],-8.5 ± 0.1 kcal/mol
same,ΔH,[2]; [9],-10.2 ± 0.4 kcal/mol
same,Difference in ΔG between the 17mer recognition sequence and the 25mer peptide,[2],1.34 kcal/mol
same,Kd,[2]; previously published ref 21,0.43 ± 0.01 µM
IWGIGCNPW [9mer],solubility,"[3]; aqueous buffer, Tris pH 8.0 buffer with DTT",< 300 µM
same,Peptide solubility,[3],not sufficiently soluble for analysis
MFDTNATRLP [leader peptide],Binding detected by ITC,[1]; GmPOPB_S577A,no detectable binding
same,Binding detected by ITC,"[1]; GmPOPB_S577A, listed as 10-residue leader",does not bind
CC[C@H](C)[C@H](NC(=O)CNC(=O)[C@H](Cc1c[nH]c2ccccc12)NC(=O)[C@@H](NC(=O)[C@@H]1CCCN1C(=O)[C@H](CC(C)C)NC(=O)[C@H](CCCNC(=N)N)NC(=O)[C@@H](NC(=O)[C@H](C)NC(=O)[C@H](CC(N)=O)NC(=O)[C@@H](NC(=O)[C@H](CC(=O)O)NC(=O)[C@H](Cc1ccccc1)NC(=O)[C@@H](N)CCSC)[C@@H](C)O)[C@@H](C)O)[C@@H](C)CC)C(=O)NCC(=O)N[C@@H](CS)C(=O)N[C@@H](CC(N)=O)C(=O)N1CCC[C@H]1C(=O)N[C@@H](Cc1c[nH]c2ccccc12)C(=O)N[C@H](C(=O)N[C@@H](C)C(=O)N[C@@H](CCC(=O)O)C(=O)N[C@@H](Cc1c[nH]cn1)C(=O)N[C@H](C(=O)N[C@@H](CC(=O)O)C(=O)N[C@@H](CCC(N)=O)C(=O)N[C@H](C(=O)N[C@@H](CC(C)C)C(=O)N[C@@H](C)C(=O)N[C@@H](CO)C(=O)NCC(=O)N[C@@H](CC(N)=O)C(=O)N[C@@H](CC(=O)O)C(=O)N[C@H](C(=O)N[C@@H](CS)C(=O)O)[C@@H](C)CC)[C@@H](C)O)C(C)C)[C@@H](C)O [35mer],-TΔS,[1]; GmPOPB_S577A,-1.2 ± 0.4 kcal/mol
same,ΔG,[1]; GmPOPB_S577A,-9.3 ± 0.1 kcal/mol
IWGIGCNPWTAEH [13mer],-TΔS,[1]; GmPOPB_S577A,-6.9 ± 0.2 kcal/mol
same,ΔG,[1]; GmPOPB_S577A,-7.3 ± 0.1 kcal/mol
same,ΔH,[1]; GmPOPB_S577A,-0.6 ± 0.2 kcal/mol
same,Kd,[1],2.4 ± 0.1 µM
same,Difference in affinity (reduction in binding) between the 35mer and the 13mer,"[1]; ratio of ITC Kd values, GmPOPB_S577A",~ 20 fold
GmPOPB (Galerina marginata CBS 339.88),Km,[4],23 ± 11 µM
same,kcat,[4],0.0533 ± 0.0067 s⁻¹
same,kcat/Km,[4],2330 ± 1200 M⁻¹ s⁻¹
same,Km,[5],24.4 ± 5.2 µM and 25 µM
same,kcat,[5],0.00817 ± 0.0005 s⁻¹ and 0.00817 s⁻¹
same,kcat/Km,[5],333 ± 67 M⁻¹ s⁻¹
same,Km,[6],380 µM
same,kcat,[6],0.00967 s⁻¹
same,kcat/Km,[6],16.7 ± 1.7 M⁻¹ s⁻¹
VDQTLASGNDIC [12mer-recognition sequence],-TΔS,[1]; GmPOPB_S577A,16.3 ± 3.0 kcal/mol
same,ΔG,[1]; GmPOPB_S577A,-7.1 ± 0.1 kcal/mol
same,ΔH,[1]; GmPOPB_S577A,-23.5 ± 3.1 kcal/mol
IWGIGCNPWT [10mer],-TΔS,[1]; GmPOPB_S577A,-2.4 ± 0.3 kcal/mol
same,ΔG,[1]; GmPOPB_S577A,-5.5 ± 0.1 kcal/mol
same,ΔH,[1]; GmPOPB_S577A,-3.1 ± 0.5 kcal/mol
same,Kd,[1],83 ± 17 µM
IWGIGCNPWTAE [12mer],-TΔS,[1]; GmPOPB_S577A,-5.3 ± 0.4 kcal/mol
same,ΔG,[1]; GmPOPB_S577A,-6.3 ± 0.1 kcal/mol
same,ΔH,[1]; GmPOPB_S577A,-1.0 ± 0.3 kcal/mol
same,Kd,[1],21 ± 5 µM
IWGIGCNPWTA [11mer],ΔG,[1]; GmPOPB_S577A,-5.9 ± 0.3 kcal/mol
same,ΔH,[1]; GmPOPB_S577A,-1.5 ± 0.7 kcal/mol
same,Kd,[1],39 ± 18 µM
VDQTLASGNDIC [truncated recognition sequence VDQTLASGNDIC (12 residues)],Kd,[7],5 µM
TLASGNDIC [truncated recognition sequence TLASGNDIC (9 residues)],Kd,[7],121 µM
"MFDTNATRLPIWGIGCNPWTAEHVDQTLASGNDIC (also called 35mer peptide) [35mer substrate (amatoxin peptide precursor, full-length substrate)]",binding result,[8],binds
same,Kd,[7],0.12 µM
